Reference: US10047164B2, “Methods and compositions for the treatment of pancreatic cancer” (Opsona Therapeutics Ltd., priority 2012, dated 2018)

Experiments:
[1] = test system: pancreatic tumours in KPC mice; details: Science 2009; cited from earlier work
[2] = test system: advanced pancreatic cancer; details: patients with advanced pancreatic cancer; cited from earlier work
[3] = test system: KPC cell line orthotopic pancreatic tumours; details: treatment at the induction of tumours; over 49 days (FIG. 1); OPN-305 10 mg/kg i.v. once weekly, Gemcitabine 100 mg/kg i.p. twice weekly, Abraxane 10 mg/kg i.v. day 0
Source text: A preclinical mouse model of pancreatic cancer was established where a KPC cell line derived from the genetically engineered ‘KPC’ mouse with pancreas-specific mutant Kras and mutant TP53 genetic background (LSL-KrasG12D; p53R172H, Pdx1-Cre) backcrossed several generations with C57Bl/6 mice was implanted as allograft, orthotopically in the pancreas of C57bl/6 (B6) mice. In brief, a subcutaneous tumour was first established by injecting 2.5 million cells under the skin of C57Bl/6 mice. Ten days later, the tumour was excised and chopped into smaller pieces, roughly 1 mm^3 in size, and implanted orthotopically into pancreas of C57Bl/6 mice. For orthotopic implantation into the pancreas, each mouse was anesthetized with 2.5% Avertin, 0.013 ml/g B.W. All surgical procedures were performed under aseptic conditions with use of sterile gloves and autoclaved instruments. The skin was disinfected with betadine followed by alcohol and this procedure was repeated twice. A left lateral oblique incision was made through the skin and then through the body wall just below the stomach. […] The growth of orthotopic tumours were measured over the period of 12-16 weeks by non-invasive ultrasound (Vevo2100, VisualSonic). […] The orthotopically implanted tumours were measured by ultrasound 5 days post-surgery and randomized into various treatment arms as below: • 1. […]

Row | Compound | tumours demonstrating a change in growth kinetics after treatment [1] [%] | improvement in median survival duration [2] [week] | tumour volume [3]
1 | Nc1ccn([C@@H]2O[C@H](CO)[C@@H](O)C2(F)F)c(=O)n1 [Gemcitabine] | 12 | 5 | 
2 | OPN-305: humanized version of T2.5, a murine IgG1 anti-TLR2 antibody; described in WO2011/003925 |  |  | reduced tumour volume to a greater extent than treatment with a combination of Gemcitabine+Abraxane
